Key:
[1] = system: TRPV1; set-up: method as in PMID 30697147; conditions: read-out: agonism toward TRPV1; cited from earlier work
[2] = system: TRPV2; set-up: method as in PMID 30697147; conditions: read-out: agonism toward TRPV2; cited from earlier work
[3] = system: BV2 microglial cells, stimulated with lipopolysaccharide (LPS); test: Arginase 1 ELISA in LPS-stimulated BV2 cells; format: cell-based, mouse; conditions: 0.1, 1.0, 2.5, 5.0 μM
Procedure: (§1) BV2 cells were a gift from Dr. Bob McCusker, University of Illinois. They were cultured and maintained at 37 °C in a humidified atmosphere of 95% air and 5% CO2 in high-glucose Dulbecco’s modified Eagle’s (DMEM) medium (Cat No. 10-013-CV, Corning Life Sciences), supplemented with 5% heat-inactivated fetal bovine serum (FBS), streptomycin (100 μg/mL), and penicillin (100 units/mL). Stocks of all the minor cannabinoids were made in ethanol and stored at −80 °C and diluted as required before cell treatment. A final concentration of ethanol was maintained at 0.1% in the cell culture experiments.
BV-2 cells were plated at a density of 50 000 cells/well in a 24-well plate at 37 °C under controlled conditions. Cells were pretreated with the minor cannabinoids at various concentrations (0.1, 1.0, 2.5, 5.0 μM) for 4 h and then stimulated with LPS for 24 h. The culture medium was removed and saved for the determination of nitric oxide production through Cayman’s Griess assay. IL-6, TNFα, and Arginase 1 production was also determined utilizing collected medium. […] The absorbance was measured at 540 nm using a plate reader (SpectraMax iD5). The quantification was done using a calibration curve that was generated using the sodium nitrite standard obtained from Cayman Chemicals. […]

[4] = In vivo metabolism of CBC, mouse blood plasma (LC-MS/MS); set-up: species or system mice; conditions: mice, CBC 20 mg/kg IV or IP, plasma at 0.5 and 2 h
Procedure: CBC was dissolved in ethanol, and an aliquot was then mixed with Tween-80. Ethanol was removed by evaporation. The mixture was then reconstituted with PBS to a 6% final concentration of Tween-80. C 57BL/6J female mice, age 8–10 weeks, were injected with 20 mg/kg CBC or vehicle intravenously (IV, n = 3) via the tail vein or intraperitoneally (IP, n = 3). Blood samples were collected terminally by cardiac puncture into heparin-coated syringes at 0.5 and 2 h after CBC treatment and transferred into tubes. The tubes were then centrifuged, and plasma samples were removed and stored at −80 °C.
200 μL of blood plasma from each sample was taken into a glass tube, and 500 μL of extraction solvent (hexane:ethyl acetate 80:20 v/v) was added. The remaining extraction steps are similar to those used for CBC metabolite extraction from CYPs as mentioned earlier.
Samples were analyzed with the 5500 QTRAP LC/MS/MS system (Sciex, Framingham, MA) in the Metabolomics Lab of Roy J. Carver Biotechnology Center, University of Illinois at Urbana–Champaign. Software Analyst 1.7.1 was used for data acquisition and analysis. The 1200 series HPLC system (Agilent Technologies, Santa Clara, CA) includes a degasser, an autosampler, and a binary pump. The LC separation was performed on a Phenomenex Gemini C6-phenyl column (2 × 100 mm, 3 μm) with mobile phase A (0.1% formic acid in water) and mobile phase B (0.1% formic acid in acetonitrile). The flow rate was 0.2 mL/min. The linear gradient was as follows: 0–2 min, 95% A; 10 min, 50% A; 20–25 min, 0% A; 25.1–31 min, 95% A. The autosampler was set at 10 °C. The injection volume was 5 μL. Mass spectra were acquired under positive electrospray ionization (ESI) with the ion spray voltage of +5000 V. The source temperature was 400 °C. The curtain gas, ion source gas 1, and ion source gas 2 were 325, 65, and 55 psi, respectively. Multiple reaction monitoring (MRM) was used for quantitation: CBC m/z 315.1 → m/z 135.0; 1-acetoxy-6′,7′-dihydroxy-CBC (JM-I-73) m/z 349.1→ m/z 193.0; 1″-hydroxy-CBC (JM-I-66) m/z 331.1→ m/z 275.1; 6′,7′-epoxy-CBC (JM-I-27) m/z 331.1→ m/z 193.0; 7′,10′-ene-6′-hydroxy-CBC (JM-I-30) m/z 331.1→ m/z 193.0; 8′-hydroxy-CBC (JM-I-32) […]→ m/z 77.0. Internal standard EET-EA-d11 was monitored at m/z 375.2→ m/z 357.1.

[5] = biological target: CYP3A4 (Homo sapiens, UniProt P08684); test: CBC metabolism by CYP3A4; format: in vitro ADME; set-up: His-tag; made in house; host or cells: E. coli DH-5α with pTGro7 plasmid (CYP)
Procedure: (§2) To study the kinetics of CBC metabolism, concentration dependent metabolism of CBC was carried out in the presence of various CYPs using the following procedure. CYP2J2, CYP2C8, CYP2D6, CYP2C9, and CYP3A4 (final concentration 0.5 μM) were initially dissolved in lipid containing POPC:POPS (8:2 v/v) followed by addition of CPR (final concentration 0.6 μM) in 0.1 M potassium phosphate buffer (pH 7.4). CBC (5–80 μM) was added and incubated at 37 °C for 10 min. The reaction was triggered by NADPH and extracted using the exact sample protocol as mentioned in the HLM section.
(§3) Samples were analyzed with the 5500 QTRAP LC/MS/MS system (Sciex, Framingham, MA) in the Metabolomics Lab of Roy J. Carver Biotechnology Center, University of Illinois at Urbana–Champaign. Software Analyst 1.7.1 was used for data acquisition and analysis. The 1200 series HPLC system (Agilent Technologies, Santa Clara, CA) includes a degasser, an autosampler, and a binary pump. […] Multiple reaction monitoring (MRM) was used for quantitation: CBC m/z 315.1 → m/z 135.0; 1-acetoxy-6′,7′-dihydroxy-CBC (JM-I-73) m/z 349.1→ m/z 193.0; 1″-hydroxy-CBC (JM-I-66) m/z 331.1→ m/z 275.1; 6′,7′-epoxy-CBC (JM-I-27) m/z 331.1→ m/z 193.0; 7′,10′-ene-6′-hydroxy-CBC (JM-I-30) m/z 331.1→ m/z 193.0; 8′-hydroxy-CBC (JM-I-32) […]→ m/z 77.0. Internal standard EET-EA-d11 was monitored at m/z 375.2→ m/z 357.1.

[6] = biological target: CYP2D6 (Homo sapiens, UniProt P10635); test: CBC metabolism by CYP2D6; format: in vitro ADME; set-up: His-tag; made in house; host or cells: E. coli DH-5α with pTGro7 plasmid (CYP)
Procedure: as §2, §3

[7] = system: BV2 microglial cells, stimulated with lipopolysaccharide (LPS); test: TNFα ELISA in LPS-stimulated BV2 cells; format: cell-based, mouse; conditions: 0.1, 1.0, 2.5, 5.0 μM
Procedure: as §1
(§4) BV-2 cells were plated at a density of 50 000 cells/well in a 24-well plate at 37 °C under controlled conditions. Cells were pretreated with the minor cannabinoids at various concentrations (0.1, 1.0, 2.5, 5.0 μM) for 4 h and then stimulated with LPS for 24 h. The culture medium was removed and saved for the determination of nitric oxide production through Cayman’s Griess assay. IL-6, TNFα, and Arginase 1 production was also determined utilizing collected medium. For the Greiss assay, in a 96-well plate, 100 μL of culture medium was used, and 50 μL of both Greiss reagent-1 and Greiss reagent-2 was added and incubated for 10 min. The absorbance was measured at 540 nm using a plate reader (SpectraMax iD5). The quantification was done using a calibration curve that was generated using the sodium nitrite standard obtained from Cayman Chemicals.
(§5) BV-2 cells were pretreated with the minor cannabinoids as described previously for 4 h in serum media (reduced to 5% FBS). Cells were stimulated with LPS (25 ng/mL in growth media) and allowed to incubate for 24 h. The culture medium was collected, and the concentrations of IL-6 (Cayman Chemicals), TNFα (ThermoFisher Scientific), and arginase 1 (ThermoFisher Scientific) cytokine expression were determined using specific monoclonal antibodies by ELISA kits as per manufacturer’s instructions.

[8] = system: BV2 microglial cells, stimulated with lipopolysaccharide (LPS); test: IL-6 ELISA in LPS-stimulated BV2 cells; format: cell-based, mouse; conditions: for effect on IL-6 levels: 0.1, 1.0, 2.5, 5.0 μM, LPS-stimulated
Procedure: as §1, §4, §5

[9] = system: BV2 microglial cells, stimulated with lipopolysaccharide (LPS); test: Nitric oxide determination (Griess assay) in LPS-stimulated BV2 cells; format: cell-based, mouse; conditions: for effect on NO release/production: 0.1, 1.0, 2.5, 5.0 μM, vs cells treated with LPS only
Procedure: as §1
First, cell viability of BV2 cells was assessed after treatment with cannabinoids, at various concentrations (0.1, 1.0, 2.5, 5.0 μM), utilizing Cayman’s MTT assay. […] Once viability was determined, we measured the production of pro-inflammatory markers such as nitric oxide (NO), interleukin 6 (IL-6), tumor necrosis factor alpha (TNFα), and arginase 1 (Arg1) after BV2 cells were treated with minor cannabinoids and then stimulated with lipopolysaccharide (LPS) to evoke an inflammatory response.
as §4

[10] = system: recombinant CYPs: CYP2J2, CYP2C8, CYP2C9, CYP2D6, and CYP3A4; test: CBC metabolism by recombinant CYPs (all five); format: in vitro ADME, human; conditions: lipid-constituted system with CPR, NADPH
Procedure: as §2, §3

Sequence of CYP3A4 (P08684 whole entry): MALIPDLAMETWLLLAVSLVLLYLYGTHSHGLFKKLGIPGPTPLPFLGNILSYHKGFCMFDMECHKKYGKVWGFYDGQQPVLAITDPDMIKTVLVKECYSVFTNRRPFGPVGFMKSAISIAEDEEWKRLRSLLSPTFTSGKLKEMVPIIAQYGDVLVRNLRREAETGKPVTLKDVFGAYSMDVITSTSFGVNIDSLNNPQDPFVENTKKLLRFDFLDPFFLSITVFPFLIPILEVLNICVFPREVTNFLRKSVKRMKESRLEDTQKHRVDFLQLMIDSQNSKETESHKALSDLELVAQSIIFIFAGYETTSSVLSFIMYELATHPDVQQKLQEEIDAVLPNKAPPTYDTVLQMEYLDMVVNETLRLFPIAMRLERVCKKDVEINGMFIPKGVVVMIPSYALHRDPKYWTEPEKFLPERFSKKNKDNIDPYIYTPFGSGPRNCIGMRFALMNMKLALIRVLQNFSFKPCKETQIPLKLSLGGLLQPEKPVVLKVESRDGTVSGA
Sequence of CYP3A4 (P16435 whole entry partner): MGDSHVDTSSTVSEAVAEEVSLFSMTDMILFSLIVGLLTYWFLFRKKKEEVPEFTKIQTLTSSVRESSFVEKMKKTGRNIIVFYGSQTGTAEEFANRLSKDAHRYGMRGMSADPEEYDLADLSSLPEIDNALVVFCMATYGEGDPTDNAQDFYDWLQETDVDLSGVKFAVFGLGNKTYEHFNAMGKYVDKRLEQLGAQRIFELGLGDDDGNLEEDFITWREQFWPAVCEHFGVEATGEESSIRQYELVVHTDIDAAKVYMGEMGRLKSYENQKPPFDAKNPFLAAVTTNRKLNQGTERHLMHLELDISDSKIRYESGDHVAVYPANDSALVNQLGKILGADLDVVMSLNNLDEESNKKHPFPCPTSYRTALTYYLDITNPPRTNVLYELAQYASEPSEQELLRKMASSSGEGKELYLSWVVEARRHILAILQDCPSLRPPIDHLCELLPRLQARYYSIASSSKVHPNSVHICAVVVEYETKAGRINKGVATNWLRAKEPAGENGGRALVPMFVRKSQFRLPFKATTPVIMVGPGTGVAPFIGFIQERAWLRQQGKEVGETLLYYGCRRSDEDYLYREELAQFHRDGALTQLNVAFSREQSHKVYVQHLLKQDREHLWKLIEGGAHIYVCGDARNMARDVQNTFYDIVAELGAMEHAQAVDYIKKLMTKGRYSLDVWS
Sequence of CYP2D6 (P10635 whole entry): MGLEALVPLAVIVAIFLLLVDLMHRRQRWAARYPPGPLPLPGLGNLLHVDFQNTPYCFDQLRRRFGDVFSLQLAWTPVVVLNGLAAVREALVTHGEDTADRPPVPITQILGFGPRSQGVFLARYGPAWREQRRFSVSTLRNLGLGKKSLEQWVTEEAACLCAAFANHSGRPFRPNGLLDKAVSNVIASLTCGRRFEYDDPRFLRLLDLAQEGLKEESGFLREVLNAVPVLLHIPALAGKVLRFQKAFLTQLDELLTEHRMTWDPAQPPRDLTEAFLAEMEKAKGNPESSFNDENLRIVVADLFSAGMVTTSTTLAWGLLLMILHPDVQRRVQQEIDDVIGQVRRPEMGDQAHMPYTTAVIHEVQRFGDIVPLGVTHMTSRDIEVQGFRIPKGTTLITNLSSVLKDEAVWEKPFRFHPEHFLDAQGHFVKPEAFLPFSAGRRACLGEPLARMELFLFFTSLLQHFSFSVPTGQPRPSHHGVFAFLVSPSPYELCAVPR
Sequence of CYP2D6 (P16435 whole entry partner): as the sequence (P16435 whole entry partner) above

Structure (SMILES) | EC50 [1] | EC50 [2] | effect on Arg-1 production [3] | detection as product of CBC metabolism in mouse plasma [4] | formation as CBC metabolite [5] | effect on TNFα production [7] | effect on IL-6 levels [8] | effect on NO release/production [9] | also measured
C=C(C)[C@@H]1CCC(C)=C[C@H]1c1c(O)cc(CCCCC)cc1O [CBD, cannabidiol] | ~40 µM | ~40 µM |  |  |  |  |  |  | 
CCCCCc1cc(O)c2c(c1)OC(C)(CCC1OC1(C)C)C=C2 (centres unmarked) [6′,7′-epoxy-CBC] |  |  | increases in a concentration dependent manner | detected | exclusively produces |  |  |  | 
CCCCC(O)c1cc(O)c2c(c1)OC(C)(CCC=C(C)C)C=C2 (centres unmarked) [1″-hydroxy-CBC] |  |  | increases in a concentration dependent manner | not detected | not detected | Concentration dependent reduction | Concentration dependent reduction |  | detection as CBC metabolite [6]: not detected
C=C(C)C(O)CCC1(C)C=Cc2c(O)cc(CCCCC)cc2O1 (centres unmarked) [7′,10′-ene-6′-hydroxy-CBC] |  |  |  |  |  | Concentration dependent reduction | Concentration dependent reduction | concentration-dependent reduction | 
CCCCCc1cc(O)c2c(c1)OC(C)(CCC(O)C(C)(C)O)C=C2 (centres unmarked) [6′,7′-dihydroxy-CBC] |  |  |  | detected |  | Concentration dependent reduction | Concentration dependent reduction | concentration-dependent reduction | reduction of IL-6 level ([8]; 5 μM, LPS-stimulated BV2 cells): ~50%; detection as CBC metabolite in the presence of recombinant CYPs [10]: not detected; reduction of NO level ([9]; 5 μM, LPS-stimulated BV2 cells): ~50%
CCCCCc1cc(O)c(C/C=C(\C)CCC=C(C)C)c(O)c1 [CBG, cannabigerol] | ~33 µM | ~73 µM |  |  |  |  |  |  | 
